Measured values from patent publication US20110257131A1, “PHENYLALKYL-IMIDAZOLE-BISPHOSPHONATE COMPOUNDS” (NOVARTIS AG, priority 2008, published 2011).

target: T1, Human farnesyl pyrophosphate synthase (FPPS, Swissprot ID: P14324) (Homo sapiens, UniProt P14324); assay: FPPS assay (label-free LC/MS/MS quantification of farnesyl pyrophosphate); assay type: biochemical; details: cell-free in vitro FPPS assay; 5 min pre-incubation with enzyme, GPP/IPP 5 μM each, 30 min reaction
T1 construct: made in house
T1 sequence (P14324 67-419 limits assumed): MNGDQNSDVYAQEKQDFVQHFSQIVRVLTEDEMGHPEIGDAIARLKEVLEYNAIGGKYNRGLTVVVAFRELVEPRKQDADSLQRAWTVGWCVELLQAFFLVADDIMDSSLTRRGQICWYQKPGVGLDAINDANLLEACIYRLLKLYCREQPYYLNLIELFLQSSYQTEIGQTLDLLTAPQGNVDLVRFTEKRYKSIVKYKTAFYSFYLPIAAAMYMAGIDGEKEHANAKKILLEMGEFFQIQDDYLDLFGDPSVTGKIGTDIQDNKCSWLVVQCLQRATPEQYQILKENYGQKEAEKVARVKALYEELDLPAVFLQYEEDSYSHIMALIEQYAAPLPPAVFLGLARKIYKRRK
Procedure: For example, in a cell-free in vitro assay the superiority of compounds of the formula I over compounds already known can be shown. Briefly, the reaction proceeds in the presence of enzyme and an inhibitor of the formula I, and the reaction product (farneysyl pyrophosphate) is quantified by LC/MS/MS.
In detail, the inhibitor and enzyme are pre-incubated before adding the substrates
The assay is a label-free assay for farnesyl pyrophosphate synthase (FPPS) based on LC/MS/MS. This method quantifies in-vitro untagged farnesyl pyrophosphate (FPP) and is suitable for high throughput screening (HTS) to find inhibitors of FPPS and for the determinations of IC50 values of candidate compounds. The analysis time is 2.0 minutes with a total cycle time of 2.5 minutes. The analysis can be formatted for 384-well plates resulting in an analysis time of 16 hours per plate.
Pentanol, methanol, and isopropyl alcohol are HPLC grade and obtained from Fisher Scientific, DMIPA is from Sigma-Aldrich. Water is from an in-house Milli-Q system. The assay buffer (20 mM HEPES, 5 mM MgCl2 and 1 mM CaCl2) is prepared by dilution from […] stock solutions obtained from Sigma-Aldrich. Standards of geranyl pyrophosphate (GPP), […], and farnesyl S-thiolopyrophosphate (FSPP) are from Echelon Biosciences (Salt Lake City, Utah). Human farnesyl pyrophosphate synthase (FPPS, Swissprot ID: P14324) (13.8 mg/mL) is prepared as described by Rondeau at al (ChemMedChem 2006, 1, 267-273.
LC/MS/MS analyses are performed on a Micromass Quattro Micro tandem quadrupole mass analyser (Waters Corp, Milford, Mass., USA) interfaced to an Agilent 1100 binary LC pump Agilent Technologies, Inc., Santa Clara, Calif., USA). Injection is performed with a CTC Analytics autosampler (Leap Technologies Inc., Carrboro, N.C., USA) using an injection loop size of 2.5 μL. Chromatography is performed on a Waters 2.1×20 mm Xterra MS C18 5 μm guard column (P/N186000652) (Waters Corp., Milford, Mass., USA) contained in a guard column holder (P/N 186000262) using 0.1% DMIPA/methanol as solvent A and 0.1% DMIPA/water as solvent B (DMIPA is dimethylisopropylamine). The gradient is 5% A from 0.00 to 0.30 min, 50% A at 0.31 min., 80% A at 1.00 min., and 5% A from 1.01 to 2.00 min. The flow rate is 0.3 mL/min, and the flow is diverted to waste from 0.00 to 0.50 min and again from 1.20 to 2.00 min.
The Multiple Reaction Monitoring (MRM) transitions monitored are 381->79—for FPP and 397->159—for FSPP at a collision energy of 22 eV and a collision cell pressure of 2.1×10-3 mbar of Ar. The dwell time per transition is 400 msec with a span of 0.4 Da. The inter-channel delay and interscan delay are both 0.02 sec. Other mass spectrometric operating parameters are: capillary, 2.0 kV; cone, 35 V; extractor, 2.0 V, source temp., 100 ° C.; desolvation gas temp., 250° C.; desolvation gas flow, 650 L/hr; cone gas flow, 25 L/hr; multiplier, 650 V.
The total cycle time per sample is 2.5 minutes. Since the analysis is formatted for 384-well plates, a plate is analyzed in 16 hours. The chromatograms are processed using Quanlynx software, which divides the area of individual FPP peaks by the area of the FSPP peaks (internal standard). The resulting values are reported as the relative response for the corresponding sample well.
Into each well of a 384-well plate, 5 μL of compound in 20% DMSO/water is placed. […]

Row | Structure (SMILES) | IC50
1 | O=P(O)(O)C(O)(Cn1cnc(Cc2ccccc2)c1)P(=O)(O)O [Example 2, [2-(4-Benzyl-imidazol-1-yl)-1-hydroxy-1-phosphono-ethyl]-phosphonic acid] | 1.4 nM
2 | O=P(O)(O)C(O)(Cn1cnc(CCc2ccccc2)c1)P(=O)(O)O [Example 3, [1-Hydroxy-2-(4-phenethyl-imidazol-1-yl)-1-phosphono-ethyl]-phosphonic acid] | 1.9 nM

The next lines start with the values.

Row | IC50 | Structure (SMILES)
3 | 1.9 nM | O=P(O)(O)C(O)(Cn1cncc1CCCc1ccccc1)P(=O)(O)O [Example 1, {1-Hydroxy-2-[5-(3-phenyl-propyl)-imidazol-1-yl]-1-phosphono-ethyl}-phosphonic acid]
4 | 6.7 nM | O=P(O)(O)C(O)(Cn1cncc1CCc1ccccc1)P(=O)(O)O [Example 4, [1-Hydroxy-2-(5-phenethyl-imidazol-1-yl)-1-phosphono-ethyl]-phosphonic acid]
5 | 3.5 nM | Cc1ccc(CCCc2cncn2CC(O)(P(=O)(O)O)P(=O)(O)O)cc1 [Example 5, {1-Hydroxy-1-phosphono-2-[5-(3-p-tolyl-propyl)-imidazol-1-yl]-ethyl}-phosphonic acid]
